{
  "source": "patent US20200113852A1",
  "about": "“METHODS OF PATIENT SELECTION AND TREATING TRXR- OR PRDX-OVEREXPRESSED CANCERS” (TRIACT THERAPEUTICS, INC., priority 2017, published 2020)",
  "key": {"[1]": {"system": "HCT116 cells", "experiment": "Iniparib metabolites release, XLC-MS/MS of incubation media", "type": "in vitro ADME, human", "design": "unit not given beside the values", "method": "(§1) Online solid phase extraction (SPE) was performed using the fully automated Spark Holland Symbiosis™ (Emmen, The Netherlands) in eXtraction Liquid Chromatography (XLC) mode. The Symbiosis™ has previously been described in detail (18). HySphere™ C18 HD 7 μm SPE cartridges were used (Spark Holland). Each cartridge was initially conditioned with 2 ml methanol+0.5% formic acid (FA) and then equilibrated with 2 ml water+0.5% FA, both at flow-rates of 4 ml/min. Sample (25 μl) was aspirated and loaded onto the cartridge with 1 ml water+0.5% FA at a flow-rate of 1 ml/min. […] After elution, the right clamp was washed successively with 2 ml water+0.5% FA, 2 ml methanol+0.5% FA and 2 ml water+0.5% FA at 4 ml/min. […] The mobile phase composition was returned to starting conditions over 1 min and maintained during 6 min for column equilibration. The total run time was 27 min. Mass spectrometry was performed using the Thermo® TSQ Quantum Discovery Max in electrospray positive ionization mode (Thermo, US) with the following parameters: capillary voltage=4.0 kV, capillary temperature=300° C., sheath gas pressure=40, auxiliary gas pressure=5.\n(§2) All values are expressed as means±SEM of three independent experiments. ND., non detectable."}, "[2]": {"system": "MDA-MB-453 cells", "experiment": "Iniparib metabolites release, XLC-MS/MS of incubation media", "type": "in vitro ADME, human", "design": "unit not given beside the values", "method": "as §1, §2"}, "[3]": {"target": "T1, purified rat liver TrxR (Rattus norvegicus, UniProt O89049)", "T1 construct": "Wild type TrxR purified from rat liver was from Sigma-Aldrich Chemicals; purchased Sigma-Aldrich Chemicals; host or cells: rat liver (tissue-purified)", "T1 sequence (O89049 whole entry)": "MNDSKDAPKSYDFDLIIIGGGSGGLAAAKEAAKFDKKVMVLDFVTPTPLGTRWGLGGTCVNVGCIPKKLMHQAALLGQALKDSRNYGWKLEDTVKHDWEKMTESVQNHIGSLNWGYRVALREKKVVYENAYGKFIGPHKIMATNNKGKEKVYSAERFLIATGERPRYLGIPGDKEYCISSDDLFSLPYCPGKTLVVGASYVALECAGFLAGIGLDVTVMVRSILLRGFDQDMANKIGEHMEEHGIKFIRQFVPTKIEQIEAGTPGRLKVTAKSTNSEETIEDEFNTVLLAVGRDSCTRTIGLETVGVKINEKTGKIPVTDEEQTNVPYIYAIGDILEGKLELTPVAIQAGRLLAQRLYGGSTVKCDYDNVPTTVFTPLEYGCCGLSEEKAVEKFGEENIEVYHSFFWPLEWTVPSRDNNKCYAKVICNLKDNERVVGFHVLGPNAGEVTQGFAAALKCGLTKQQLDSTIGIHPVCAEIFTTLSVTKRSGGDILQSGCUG", "experiment": "In vitro TrxR activity (DTNB reduction assay)", "type": "biochemical", "settings": "100 μM Iniparib, 200 μM NADPH, up to 120 min"}, "[4]": {"system": "MDA-MB-231 cells", "experiment": "ROS production (CellROXOrange)", "type": "cell-based, human", "settings": "GSH-depleted MDA-MB-231, 100 μM, 4 h"}, "[5]": {"system": "metastatic triple negative breast cancer", "experiment": "Phase 2 and Phase 3 mTNBC trials, 15-gene expression signature analysis (PFS, OS, ORR)", "type": "in vivo, human", "excerpt": "Formalin-fixed, paraffin-embedded (FFPE) archival samples from biopsy or surgery at original diagnosis of breast cancer were profiled on the exon-based Affymetrix Hugene1.0ST microarrays using an RNA extraction protocol adapted to the short fragment lengths resulting from RNA degradation in FFPE samples. It was considered that a corpus of n=210 patients for whom clinical outcome data was available in the form of PFS time and associated censoring statuses.\nThe raw gene expression data from profiling of an initial n=240 FFPE preserved samples, in the form of individual Affymetrix CEL files, was processed using […] estimation. Quality control based on average array brightness excluded 30 outlier scans, and the n=210 remaining profiles were then normalized to each other using quantile normalization. Affymetrix probesets were mapped to genes, in a manner where multiple probesets mapping into the same gene were resolved by assigning the highest intensity to the corresponding gene, this procedure reducing the set of 33,297 probe sets to 20,756 mapped genes. The data was then log 2-transformed, and standardized by mean-subtraction and division by the standard deviation across all 210 samples, for each gene separately. Finally, the data matrix was subsetted to the intersection of the oxidative response set of 102 genes with the set of genes represented on the Hugene1.0ST arrays, resulting in profiles for p=82 genes across all n=210 samples.\nA multivariate Cox model using supervised principal components was used to model progression free survival times regressed on gene expression data. […]\nIn Eq.(1) the variables: x1, l=1, . . . , K, denote projections onto the first K principal components of the data matrix of gene expression vectors, after preliminary reduction to a subset of mtop genes out of the original set of 82, where mtop is a variable parameter, 1≤mtop≤82. For a given mtop, the subset is determined by univariate feature selection (generating a Cox model for each gene independently and selecting the mtop genes with the smallest interaction-term P-values). […]"}, "[6]": {"settings": "human, in vivo"}, "[7]": {"target": "T2, TrxR1 and other protein targets in HCT116 cells (Homo sapiens, UniProt Q16881)", "T2 sequence (Q16881 1-499 isoform Q16881-5)": "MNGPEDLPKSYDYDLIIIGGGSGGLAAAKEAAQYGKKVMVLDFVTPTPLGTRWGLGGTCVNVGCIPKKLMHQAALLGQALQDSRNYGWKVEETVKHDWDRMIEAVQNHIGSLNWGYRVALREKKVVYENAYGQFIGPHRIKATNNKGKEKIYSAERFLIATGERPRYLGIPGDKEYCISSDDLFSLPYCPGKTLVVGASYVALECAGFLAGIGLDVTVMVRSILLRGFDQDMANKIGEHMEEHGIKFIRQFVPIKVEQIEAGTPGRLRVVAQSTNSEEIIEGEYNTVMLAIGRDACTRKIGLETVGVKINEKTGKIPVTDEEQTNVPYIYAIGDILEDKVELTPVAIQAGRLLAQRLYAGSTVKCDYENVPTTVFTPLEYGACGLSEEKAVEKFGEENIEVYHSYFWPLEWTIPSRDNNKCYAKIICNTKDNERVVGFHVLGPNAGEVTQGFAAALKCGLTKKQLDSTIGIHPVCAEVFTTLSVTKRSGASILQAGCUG", "settings": "90-min preincubation of GSH-depleted HCT116 (auranofin 10 μM or Iniparib 100 μM)"}},
  "note": "Like-named read-outs stand apart in the source and are kept apart here.",
  "data": [
    {"smiles": "NC(=O)c1ccc(I)c([N+](=O)[O-])c1", "note": "[Iniparib, 4-iodo-3-nitrobenzamide]", "values": [
      {"measurement": "Iniparib and metabolites in incubation media", "setting": "[1]; HCT116 w BSO, 1 h after 100 μM Iniparib", "result": "87.6 ± 3.5"},
      {"measurement": "Iniparib and metabolites in incubation media", "setting": "[1]; HCT116 w BSO, 5 h after 100 μM Iniparib", "result": "84.5 ± 6.7"},
      {"measurement": "Iniparib and metabolites in incubation media", "setting": "[1]; HCT116 w BSO, 24 h after 100 μM Iniparib", "result": "72.9 ± 7.4"},
      {"measurement": "Iniparib and metabolites in incubation media", "setting": "[1]; HCT116 w/o BSO, 1 h after 100 μM Iniparib", "result": "59.2 ± 0.6"},
      {"measurement": "Iniparib and metabolites in incubation media", "setting": "[1]; HCT116 w/o BSO, 5 h after 100 μM Iniparib", "result": "8.9 ± 0.4"},
      {"measurement": "Iniparib and metabolites in incubation media", "setting": "[2]; MDA-MB-453 w BSO, 1 h after 100 μM Iniparib", "result": "91.4 ± 5.1"},
      {"measurement": "Iniparib and metabolites in incubation media", "setting": "[2]; MDA-MB-453 w BSO, 5 h after 100 μM Iniparib", "result": "88.9 ± 10.2"},
      {"measurement": "Iniparib and metabolites in incubation media", "setting": "[2]; MDA-MB-453 w BSO, 24 h after 100 μM Iniparib", "result": "74.2 ± 10.8"},
      {"measurement": "Iniparib and metabolites in incubation media", "setting": "[2]; MDA-MB-453 w/o BSO, 1 h after 100 μM Iniparib", "result": "87.1 ± 1.3"},
      {"measurement": "Iniparib and metabolites in incubation media", "setting": "[2]; MDA-MB-453 w/o BSO, 5 h after 100 μM Iniparib", "result": "64.0 ± 8.8"},
      {"measurement": "Iniparib and metabolites in incubation media", "setting": "[2]; MDA-MB-453 w/o BSO, 24 h after 100 μM Iniparib", "result": "12.2 ± 4.3"},
      {"measurement": "TrxR reductase activity", "setting": "[3]", "result": "time-dependent inhibition of its reductase activity"},
      {"measurement": "ROS", "setting": "[4]", "result": "accumulation of ROS"},
      {"measurement": "median progression-free survival", "setting": "[5]; biomarker-selected (sensitive) population n=53", "result": 5.9, "unit": "months"},
      {"measurement": "objective response rate (responders)", "setting": "[5]; resistant group", "result": 34, "unit": "%"},
      {"measurement": "objective response rate (responders)", "setting": "[5]; sensitive group n=53", "result": 48, "unit": "%"},
      {"measurement": "DLT: fatigue", "setting": "[6]", "result": 1},
      {"measurement": "DLT: hypersensitivity reaction", "setting": "[6]", "result": 1},
      {"measurement": "DLT: rash", "setting": "[6]", "result": 1},
      {"measurement": "DLT: thromboembolic event", "setting": "[6]", "result": 1},
      {"measurement": "Fatigue", "setting": "[6]", "result": "28 (65) No. (% of pts)"},
      {"measurement": "Nausea", "setting": "[6]", "result": "18 (42) No. (% of pts)"},
      {"measurement": "additional grade 3 toxicities", "setting": "[6]", "result": "neutropenia, lymphopenia, nausea, and elevated AST"},
      {"measurement": "Fatigue", "setting": "[6]; 3 cycles (10 weeks each)", "result": "13 (65) No. (% of pts)"},
      {"measurement": "Nausea", "setting": "[6]; 3 cycles (10 weeks each)", "result": "9 (45) No. (% of pts)"},
      {"measurement": "Fatigue", "setting": "[6]; 6 cycles (monthly)", "result": "15 (65) No. (% of pts)"},
      {"measurement": "Nausea", "setting": "[6]; 6 cycles (monthly)", "result": "9 (39) No. (% of pts)"},
      {"measurement": "TrxR1 labeling with Iniparib-biotin after preincubation", "setting": "[7]", "result": "only a partial inhibition"}
    ]}
  ]
}
